Experiments:
[1] = tested on: radiation enteritis; test: Clinical trial of balsalazide to treat radiation enteritis; assay type: in vivo, human; settings: patients on pelvic radiotherapy
Method: Subjects included patients treated for FIGO stage IB2-IVA cervical cancer, AJCC Stage T1-3 MO prostate cancer, or biochemical failure after prostatectomy. Radiotherapy was delivered to the subjects in a 4-field technique to at least 40 Gy, and tumor dose was at least 64 Gy for prostate patients, and 75 Gy for cervical patients. Brachytherapy boost was permitted. Patients were given 2250 mg of BSZ or an Identical-appearing placebo twice daily beginning 5 days prior to radiotherapy, and continuing for 2 weeks after completion. Toxicities were graded weekly according to NCI Common Toxicity Criteria, for each of the following: proctitis, diarrhea, dysuria, weight loss, fatigue, nausea, and vomiting. A symptom index was formulated for each toxicity consisting of the toxicity's numeric grade multiplied by the number of days it was experienced, and summed for each grade. Thus, a patient with 7 days of grade 1 proctitis, 14 days of grade 2 proctitis, and 7 days of grade 3 proctitis [(1*7)+(2*14)+(3*7)] would have a proctitis index of 56. A higher Index indicates worse toxicity. Patients were randomized by sealed envelope decision, with only the protocol coordinator aware of the results of randomization. After randomization, the study drug or identical-appearing placebo was given to the study subject with instructions concerning dosage and administration schedule. As stated above, the toxicity was assessed weekly during the course of radiation treatment, then for a period of at least six months after completion of radiotherapy. National Cancer Institute (NCI) common toxicity criteria were used to grade the severity of radiation-induced acute bowel toxicity. Diarrhea was used as the primary endpoint and was assessed as follows: Grade 0—no diarrhea or increased stool frequency Grade 1—increase of 2-3 stools/day Grade 2—increase of 4-6 stools/day or nocturnal stool Grade 3—increase of 7-9 stools/day or incontinence Grade 4—increase of >10 stools/day or grossly bloody diarrhea Documented baseline hemorrhoidal bleeding was not considered grade 4. A secondary endpoint included proctitis, which was assessed using guidelines outlined by the NCI Common Toxicity Criteria, including: Grade 0—None Grade 1—Increased stool frequency, occasional blood-streaked stools or rectal discomfort, not requiring medication Grade 2—increased stool frequency, bleeding, mucous discharge or rectal discomfort requiring medication Grade 3—increased stool frequency/diarrhea requiring parenteral support, rectal bleeding requiring transfusion, or persistent mucus discharge necessitating the use of pads Grade 4—perforation, bleeding or necrosis, or other life-threatening complications requiring surgical intervention

[2] = cited from earlier work
[3] = tested on: radiation enteritis; settings: related 5-ASA drugs; cited from earlier work
[4] = cited from earlier work; remark: listed apart in the source
[5] = 2250 mg twice daily, versus placebo

## O=C(O)CCNC(=O)c1ccc(/N=N/c2ccc(O)c(C(=O)O)c2)cc1 [balsalazide]
[1]; 2250 mg twice daily from 5 days prior to radiotherapy until 2 weeks after, vs. 77 in placebo (p=0.04), higher index = worse
  proctitis mean index (symptom index: toxicity grade x days, summed): 35
[1]; 2250 mg twice daily, 1 on placebo
  nausea/vomiting seen: 2 patients
[1]; 2250 mg twice daily, 2 placebo patients did
  patients experiencing grade 4 diarrhea: No patient
[1]; 2250 mg twice daily, placebo averaged 49
  fatigue index: 20
[1]; 2250 mg twice daily, placebo lost greater than 3 pounds
  average weight change: gained weight
[1]; [5]
  all toxicities except nausea/vomiting: appreciably lower
  dysuria: appreciably lower
[2]; versus placebo
  adverse events reported in trials (headache, nausea, diarrhea, flatulence, fatigue): comparable to those seen in patients receiving placebo

## Nc1ccc(O)c(C(=O)O)c1 [mesalamine, 5-aminosalicylic acid]
[3]
  outcome in clinical trials for radiation enteritis: failure

## O=C(O)c1cc(/N=N/c2ccc(O)c(C(=O)O)c2)ccc1O [osalazine]
[3]
  outcome in clinical trials for radiation enteritis: failure

## O=C(O)CCNC(=O)c1ccc(/N=N/c2ccc(O)c(C(=O)O)c2)cc1 [balsalazide disodium]
[4]
  water solubility: highly water-soluble
[2]; versus 0% in those receiving placebo
  abdominal pain (only statistically significant side effect), patients receiving the drug: 11%

Reference: patent US20160120886A1, “PREVENTION, TREATMENT, AND AMELIORATION OF RADIATION INDUCED ENTERITIS” (priority 2004, published 2016)
